Data taken from the supplement of paper PMC4862054.

What was measured:
Conditions in all cases: incubation time: 72 h
CAL-120 [1] = assay: normalised viability (% of control), CellTiter-Blue; higher = more viable cells (100 = DMSO, 0 = benzethonium chloride kill control)
Outline: (§1)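 Each entry is normalised viability at a single listed concentration within a series. It comes from breast cancer cell lines incubated 72 h with compound in 384-well plates, then measured with CellTiter-Blue fluorescence at 560/590 nm. Every plate was normalised between vehicle (100) and a positive kill control (0).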

CAL-148 [2] = assay: as above
Outline: as §1

BT-474 [3] = assay: as above
Outline: as §1

HCC1937 [4] = assay: as above
Outline: as §1

DU-4475 [5] = assay: as above
Outline: as §1

BT-549 [6] = assay: as above
Outline: as §1

CAL-85-1 [7] = assay: as above
Outline: as §1

MDA-MB-231 [8] = assay: as above
Outline: as §1

SK-BR-3 [9] = assay: as above
Outline: as §1

HCC1143 [10] = assay: as above
Outline: as §1

MFM-223 [11] = assay: as above
Outline: as §1

HCC1599 [12] = assay: as above
Outline: as §1

MDA-MB-468 [13] = assay: as above
Outline: as §1

HDQ-P1 [14] = assay: as above
Outline: as §1

MDA-MB-453 [15] = assay: as above
Outline: as §1

MDA-MB-436 [16] = assay: as above
Outline: as §1

CAL-51 [17] = assay: as above
Outline: as §1

Hs578T [18] = assay: as above
Outline: as §1

CAL-120 [19] = assay: normalised response (% of control), CellTiter-Glo; higher = more viable cells (100 = DMSO, 0 = benzethonium chloride kill control)
Outline: (§2)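 A 20 µl suspension of breast cancer cells was seeded into each well of 384-well plates containing compound at 5 concentrations in 10-fold steps over a compound-specific 10,000-fold range. After 72 h incubation, CellTox Green fluorescence (485/520 nm) was read first, and CellTiter-Glo luminescence was read after 10 min at room temperature. Each plate was normalised against 0.1 % DMSO (100) and a positive kill control (0), and each value is the normalised signal at one concentration.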

CAL-148 [20] = assay: as above
Outline: as §2

BT-474 [21] = assay: as above
Outline: as §2

HCC1937 [22] = assay: as above
Outline: as §2

DU-4475 [23] = assay: as above
Outline: as §2

BT-549 [24] = assay: as above
Outline: as §2

CAL-85-1 [25] = assay: as above
Outline: as §2

MDA-MB-231 [26] = assay: as above
Outline: as §2

SK-BR-3 [27] = assay: as above
Outline: as §2

HCC1143 [28] = assay: as above
Outline: as §2

MFM-223 [29] = assay: as above
Outline: as §2

MCF-10A = assay: as above
Outline: as §2

HCC1599 [30] = assay: as above
Outline: as §2

MDA-MB-468 [31] = assay: as above
Outline: as §2

HDQ-P1 [32] = assay: as above
Outline: as §2

MDA-MB-453 [33] = assay: as above
Outline: as §2

MDA-MB-436 [34] = assay: as above
Outline: as §2

CAL-51 [35] = assay: as above
Outline: as §2

Hs578T [36] = assay: as above
Outline: as §2

| SMILES | normalised viability (CAL-120 [1]) [%] | normalised viability (CAL-148 [2]) [%] | normalised viability (BT-474 [3]) [%] | normalised viability (HCC1937 [4]) [%] | normalised viability (DU-4475 [5]) [%] | normalised viability (BT-549 [6]) [%] | normalised viability (CAL-85-1 [7]) [%] | normalised viability (MDA-MB-231 [8]) [%] | normalised viability (SK-BR-3 [9]) [%] | normalised viability (HCC1143 [10]) [%] | normalised viability (MFM-223 [11]) [%] | normalised viability (HCC1599 [12]) [%] | normalised viability (MDA-MB-468 [13]) [%] | normalised viability (HDQ-P1 [14]) [%] | normalised viability (MDA-MB-453 [15]) [%] | normalised viability (MDA-MB-436 [16]) [%] | normalised viability (CAL-51 [17]) [%] | normalised viability (Hs578T [18]) [%] | normalised response (CAL-120 [19]) [%] | normalised response (CAL-148 [20]) [%] | normalised response (BT-474 [21]) [%] | normalised response (HCC1937 [22]) [%] | normalised response (DU-4475 [23]) [%] | normalised response (BT-549 [24]) [%] | normalised response (CAL-85-1 [25]) [%] | normalised response (MDA-MB-231 [26]) [%] | normalised response (SK-BR-3 [27]) [%] | normalised response (HCC1143 [28]) [%] | normalised response (MFM-223 [29]) [%] | normalised response (MCF-10A) [%] | normalised response (HCC1599 [30]) [%] | normalised response (MDA-MB-468 [31]) [%] | normalised response (HDQ-P1 [32]) [%] | normalised response (MDA-MB-453 [33]) [%] | normalised response (MDA-MB-436 [34]) [%] | normalised response (CAL-51 [35]) [%] | normalised response (Hs578T [36]) [%] |
| --- | --- | --- | --- | --- | --- | --- | --- | --- | --- | --- | --- | --- | --- | --- | --- | --- | --- | --- | --- | --- | --- | --- | --- | --- | --- | --- | --- | --- | --- | --- | --- | --- | --- | --- | --- | --- | --- |
| O=c1[nH]c(=O)n([C@H]2C[C@H](O)[C@@H](CO)O2)cc1F [Floxuridine] (1 nM) | 100 | 102 | 91.2 | 89.2 | 104 | 123 | 94.1 | 99 | 97.2 | 98.6 | 103 | 95.7 | 99.9 | 108 | 108 | 112 | 98.2 | 130 | 101 | 97.7 | 104 | 99.1 | 103 | 102 | 95.9 | 107 | 107 | 97.6 | 110 | 115 | 96.9 | 105 | 102 | 104 | 132 | 120 | 103 |
| COc1c(C)cnc(Cn2cnc3c(Cl)nc(N)nc32)c1C [BIIB021] (1 nM) | 76.8 | 96.5 | 91.7 | 93.4 | 87.7 | 97.7 | 78.1 | 76.3 | 75.8 | 82.9 | 80.8 | 143 | 94.6 | 86.4 | 93.9 | 102 | 101 | 105 | 103 | 106 | 99.1 | 103 | 103 | 95.6 | 98.1 | 112 | 93.6 | 97.6 | 102 | 104 | 124 | 101 | 95.6 | 106 | 99 | 74 | 106 |
| C#Cc1cccc(Nc2ncnc3cc(OC)c(OCCCCCCC(=O)NO)cc23)c1 [CUDC-101] (1 nM) | 79.4 | 97.1 | 108 | 85.9 | 97.5 | 96 | 77.3 | 94.9 | 82.3 | 79.9 | 78 | 115 | 94.4 | 85.7 | 88 | 96.4 | 111 | 94.9 | 100 | 98.2 | 96.5 | 96.6 | 99.1 | 101 | 94.8 | 109 | 90.8 | 102 | 98.5 | 90.8 | 108 | 93.8 | 97 | 108 | 98.6 | 74.1 | 101 |
